Molecules are shown by their SMILES.

One assay addresses T1, D(4) dopamine receptor (Homo sapiens, UniProt P21917).
T1 sequence (P21917 whole entry): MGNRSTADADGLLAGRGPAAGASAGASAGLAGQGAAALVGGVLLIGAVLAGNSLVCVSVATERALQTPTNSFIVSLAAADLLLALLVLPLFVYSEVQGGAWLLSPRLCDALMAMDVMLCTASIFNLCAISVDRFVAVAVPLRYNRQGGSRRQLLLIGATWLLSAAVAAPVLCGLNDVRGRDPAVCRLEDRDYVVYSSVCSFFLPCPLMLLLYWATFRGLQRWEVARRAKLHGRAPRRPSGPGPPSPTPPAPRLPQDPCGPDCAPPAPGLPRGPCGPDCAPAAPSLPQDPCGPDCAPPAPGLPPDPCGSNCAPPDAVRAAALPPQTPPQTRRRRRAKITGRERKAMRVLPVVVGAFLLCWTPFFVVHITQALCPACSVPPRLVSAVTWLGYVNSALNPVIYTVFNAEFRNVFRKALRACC

In a further assay the target is D(2) dopamine receptor (Homo sapiens, UniProt P14416).
A further assay deals with D(3) dopamine receptor (Homo sapiens, UniProt P35462).
D(3) dopamine receptor, sequence (P35462 whole entry): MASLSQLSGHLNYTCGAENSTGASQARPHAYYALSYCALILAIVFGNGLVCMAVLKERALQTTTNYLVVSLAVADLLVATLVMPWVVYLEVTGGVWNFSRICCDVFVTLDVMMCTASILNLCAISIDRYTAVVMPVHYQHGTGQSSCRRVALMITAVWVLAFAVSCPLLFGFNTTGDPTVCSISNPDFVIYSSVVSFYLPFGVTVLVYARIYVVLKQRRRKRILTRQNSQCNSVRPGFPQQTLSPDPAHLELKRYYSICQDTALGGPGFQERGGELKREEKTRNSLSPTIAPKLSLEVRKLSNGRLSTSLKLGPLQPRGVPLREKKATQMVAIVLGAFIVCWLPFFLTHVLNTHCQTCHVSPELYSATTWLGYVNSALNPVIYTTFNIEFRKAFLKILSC

D(2) dopamine receptor, sequence (P14416 whole entry): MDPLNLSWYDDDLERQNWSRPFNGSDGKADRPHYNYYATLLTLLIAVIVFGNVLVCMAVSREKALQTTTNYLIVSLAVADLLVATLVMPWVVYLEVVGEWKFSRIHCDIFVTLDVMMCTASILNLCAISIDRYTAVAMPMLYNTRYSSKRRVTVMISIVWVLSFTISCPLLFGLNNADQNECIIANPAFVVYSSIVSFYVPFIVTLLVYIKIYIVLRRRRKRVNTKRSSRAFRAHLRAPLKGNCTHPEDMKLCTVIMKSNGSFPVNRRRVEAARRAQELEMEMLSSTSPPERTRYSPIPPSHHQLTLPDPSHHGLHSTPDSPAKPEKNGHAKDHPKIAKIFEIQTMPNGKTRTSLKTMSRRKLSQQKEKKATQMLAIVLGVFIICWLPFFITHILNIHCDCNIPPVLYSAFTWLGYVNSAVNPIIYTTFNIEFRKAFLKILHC
Description for D(2) dopamine receptor: Partial agonist activity at D2 receptor (unknown origin) assessed as increase in cAMP accumulation
Description for D(3) dopamine receptor: Partial agonist activity at human D3 receptor assessed as inhibition constant
Description for D(4) dopamine receptor: Partial agonist activity at human D4 receptor assessed as inhibition constant

As usually defined, the Ki is a measure of affinity in units of concentration, obtained from inhibition or displacement. The low end stands for higher affinity, the high end for lower affinity. Turning to `CN(C)C(=O)N[C@H]1CC[C@H](CCN2CCN(c3cccc(Cl)c3Cl)CC2)CC1` [CARIPRAZINE], the Ki result on D(4) dopamine receptor is on record as “Not Active”.

As for `Cn1ccc2c(N3CCN(CCCCOc4ccc5c(c4)NC(=O)CC5)CC3)cccc21`, the EC50 entry on D(2) dopamine receptor is recorded as “Not Active”.

Regarding `CC1Cc2ccccc2N1C(=O)NCCCCN(C)[C@H]1Cc2cccc3[nH]c(=O)n(c23)C1` (some centres undefined), the Ki entry at D(4) dopamine receptor was “Not Active”; on D(3) dopamine receptor, 139 nM.

Source of the values: ChEMBL document CHEMBL5236546, “Potent and Subtype-Selective Dopamine D2 Receptor Biased Partial Agonists Discovered via an Ugi-Based Approach” (J Med Chem, 2021).
